The values below come from patent US7439253B2, “Heterocyclic compounds, their preparation and their use as medicaments, in particular as antibacterials and beta-lactamase inhibitors” (Novexel, priority 2002, dated 2008).

The target in test [1] is T1, β-lactamase TEM1 (Escherichia coli, UniProt P62593).
T1 construct: The β-lactamases are isolated from bacterial strains resistant to penicillins and to cephalosporins; endogenous in cells; host or cells: E. coli 250HT21 (soluble fraction of French-press lysate, 100 000 G supernatant)
Put plainly: β-lactamase inhibiting activity (Nitrocefin hydrolysis). The class given is biochemical, E. coli 250HT21. As to conditions: for IC50: 100 μM Nitrocefin, 50 mM sodium phosphate buffer pH 7.0, 37° C., read-out: IC50 nM/TEM1. Here is the method:
(§1) A. Preparation of the β-lactamases Tem˜1 and P99
(§2) The β-lactamases are isolated from bacterial strains resistant to penicillins and to cephalosporins (Tem1 and P99 are produced by E. coli 250HT21 and E. Cloacae 293HT6, respectively).
(§3) The bacteria are cultured in heart-brain broth at 37 g/l (DIFCO), at 37° C. They are harvested at the end of the exponential phase, cooled and centrifuged. The bacterial pellets are taken up in 50 mM sodium phosphate buffer pH 7.0 and again centrifuged. The bacteria are taken up in two volumes of this same buffer and lyzed by means of a French-Press kept at 4° C. After centrifugation for 1 h at 100 000 G, at 4° C., the supernatants containing the soluble fraction of the bacterial extracts are recovered and frozen at −80° C.
(§4) B. Determination of the β-lactamase Activity
(§5) The method uses, as substrate, Nitrocefin (OXOID), a chromogenic cephalosporin, whose product of hydrolysis by Beta-lactamases is red and absorbs at 485 nm. The β-lactamase activity is kinetically determined by measuring the variation in absorbance at 485 nm resulting from the hydrolysis of the substrate on a plate spectrophotometer (Spectra Max Plus from Molecular Devices). The experiments are performed at 37° C. The quantity of enzyme was normalized and the measurements are performed at the initial speed.
(§6) C. Determination of the β-lactamase Inhibiting Activity
(§7) Two measurements are carried out, without preincubation and with preincubation of the enzyme and of the inhibitor (5 min), in order to test the irreversibility of the reaction. The products are tested at 6 or 8 concentrations in duplicate. The reaction mixture contains 100 μM of Nitrocefin and 50 mM sodium phosphate buffer pH 7.0. D. Calculations of the IC50 Values
(§8) The rates of hydrolysis are measured with and without inhibitor. The concentration of inhibitor which inhibits by 50% the reaction of hydrolysis of Nitrocefin by the enzyme (IC50) is determined. The data processing is carried out with the aid of the GraFit software (Erathycus Software).

For test [2], the target named is T2, β-lactamase P99 (Enterobacter cloacae, UniProt P05364).
T2 construct: The β-lactamases are isolated from bacterial strains resistant to penicillins and to cephalosporins; endogenous in cells; host or cells: E. cloacae 293HT6 (soluble fraction of French-press lysate, 100 000 G supernatant)
Put plainly: biochemical. The class given is biochemical. Here is the method: as §1, §2, §3, §4, §5, §6, §7, §8

Setting [3] is: 100 μM Nitrocefin, 50 mM sodium phosphate buffer pH 7.0, 37° C.

SMILES strings stand for the structures. pIC50: −log10 of the molar value. Where a name gives a salt, the structure may show the parent alone. Read-outs that look alike come from different tables or passages of the source.

Broadly, the pIC50 is the IC50 on a negative log10 scale, so that one unit is a factor of ten. Low readings indicate a high IC50, high ones a low IC50.

T2 sequence (P05364 21-381): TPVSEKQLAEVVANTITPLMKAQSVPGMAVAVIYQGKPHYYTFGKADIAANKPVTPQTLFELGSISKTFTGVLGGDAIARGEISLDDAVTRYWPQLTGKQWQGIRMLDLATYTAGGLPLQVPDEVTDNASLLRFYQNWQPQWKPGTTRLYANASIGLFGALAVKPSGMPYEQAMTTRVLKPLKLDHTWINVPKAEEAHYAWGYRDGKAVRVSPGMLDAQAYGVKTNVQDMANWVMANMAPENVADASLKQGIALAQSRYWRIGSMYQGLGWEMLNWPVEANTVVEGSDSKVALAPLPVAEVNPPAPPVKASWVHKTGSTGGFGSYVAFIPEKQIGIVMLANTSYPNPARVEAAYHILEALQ
T1 sequence (P62593 24-286 limits assumed): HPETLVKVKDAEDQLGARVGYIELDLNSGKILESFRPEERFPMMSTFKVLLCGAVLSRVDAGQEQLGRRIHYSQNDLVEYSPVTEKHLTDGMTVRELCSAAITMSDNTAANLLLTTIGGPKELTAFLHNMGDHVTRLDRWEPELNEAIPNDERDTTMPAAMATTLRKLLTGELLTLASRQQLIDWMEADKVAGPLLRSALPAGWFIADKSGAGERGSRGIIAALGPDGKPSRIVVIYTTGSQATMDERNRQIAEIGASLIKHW

In turn, `CCOC(=O)C1c2ccc(OC(=O)Nc3ccccc3)cc2C2CN1C(=O)N2OS(=O)(=O)O` (stereo not drawn) [Example 37, Sodium Salt of Ethyl Trans-1,2,3,5-tetrahydro-3-oxo-8-[[(phenylamino)carbonyl]oxy]-2-(sulfoxy)-1,4-methano-4H-2,4-benzodiazepine-5-carboxylate] showed a pIC50 in test [1] of 7.39. For the same molecule, the IC50 in test [2] (setting [3]) came out at 21 nM.
The molecule `CCOC(=O)Cn1ncc2c1C(C(=O)OC)N1CC2N(OS(=O)(=O)O)C1=O` (stereo not drawn) [Example 4, Triethylammonium Salt of Ethyl Trans-4,5,6,8-tetrahydro-8-(methoxycarbonyl)-6-oxo-5-(sulfoxy)-1H-4,7-methanopyrazolo[3,4-e][1,3]diazepine-1-acetate] gave a negative logarithm of the IC50 (pIC50) in test [1] of 7.47. Moreover, the IC50 in test [2] (setting [3]) is 7 nM.
Consider `CCOC(=O)[C@H]1c2ccc(OS(=O)(=O)C(F)(F)F)cc2[C@@H]2CN1C(=O)N2OS(=O)(=O)O` (relative stereo) [Example 40, Sodium Salt of ethyl trans-1,2,3,5-tetrahydro-3-oxo-2-(sulfoxy)-8-[[(triluoromethyl)sulfonyl]oxy]-1,4-methano-4H-2,4-benzodiazepine-5-carboxylate], for which the IC50 in test [1] was found to be 11 nM; in test [2] (pH 7) it was 12 nM.
For the molecule `COC(=O)[C@@H]1c2nn(CCc3ccccc3)cc2[C@H]2CN1C(=O)N2OS(=O)(=O)O` (relative stereo) [Example 3, Triethylammonium Salt of Methyl trans-2,5,6,8-tetrahydro-6-oxo-2-(2-phenylethyl)-5-(sulfoxy)-4H-4,7-methanopyrazolo[3,4-e][1,3]diazepine-8-carboxylate], the IC50 in test [1] was 2 nM; in test [2] (setting [3]), 11 nM.
The molecule `CC1(C)OCC(COc2ccc3c(c2)C2CN(C(=O)N2OS(=O)(=O)O)C3C(N)=O)O1` (stereo not drawn) [Example 42, Sodium Salt of trans-8-[(2,2-dimethyl-1,3-dioxolan-4-yl)methoxy]-1,2,3,5-tetrahydro-3-oxo-2-(sulfoxy)-1,4-methano-4H-2,4-benzodiazepine-5-carboxamide] had a pIC50 in test [1] of 7.82. In addition, the IC50 in test [2] (setting [3]) turned out to be 44 nM.
Take `COC(=O)[C@@H]1c2nn(Cc3ccccc3)cc2[C@H]2CN1C(=O)N2OS(=O)(=O)O` (relative stereo) [Example 1, triethylammonium salt of methyl trans-2,5,6,8-tetrahydro-6-oxo-2-(phenylmethyl)-5-(sulfoxy)-4H-4,7-methanopyrazolo[3,4-e][1,3]diazepine-8-carboxylate]: the results for the IC50 in test [1] and in test [2] (setting [3]) were 3 nM and 5 nM, respectively.
Consider `COC(=O)C1c2c(cnn2CCc2ccccc2)C2CN1C(=O)N2OS(=O)(=O)O` (stereo not drawn) [Example 2, Triethylammonium Salt of Methyl trans-4,5,6,8-tetrahydro-6-oxo-1-(phenylethyl)-5-(sulfoxy)-1H-4,7-methanopyrazolo[3,4-e][1,3]diazepine-8-carboxylate], for which the pIC50 in test [1] was 7.80. The same molecule registered an IC50 in test [2] (setting [3]) of 20 nM.
In turn, `COC(=O)C1c2sc(-c3ccc(F)cc3)cc2C2CN1C(=O)N2OS(=O)(=O)O` (stereo not drawn) [Example 19, Sodium Salt of Methyl Trans-2-(4-fluorophenyl)-4,5,6,8-tetrahydro-6-oxo-5-(sulfoxy)-4,7-methano-7H-thieno[2,3-e][1,3]diazepine-8-carboxylate] gave a pIC50 in test [1] of 8.30. The same molecule yielded an IC50 in test [2] (setting [3]) of 16 nM.
Turning to `COC(=O)C1c2nn(C(N)=O)cc2C2CN1C(=O)N2OS(=O)(=O)O` (stereo not drawn) [Example 11, Pyridinium Salt of Methyl Trans-2-(aminocarbonyl)-2,5,6,8-tetrahydro-6-oxo-5-(sulfoxy)-4H-4,7-methanopyrazolo[3,4-e][1,3]diazepine-8-carboxylate], the negative-log IC50 (pIC50) in test [1] was 7.96. This molecule displayed an IC50 in test [2] (setting [3]) of 39 nM.
Take `CCOC(=O)Cn1cc2c(n1)[C@@H](C(=O)OC)N1C[C@H]2N(OS(=O)(=O)O)C1=O` (relative stereo) [Example 5, Triethylammonium Salt of Ethyl Trans-5,6-dihydro-8-(methoxycarbonyl)-6-oxo-5-(sulfoxy)-4H-4,7-methanopyrazolo[3,4-e][1,3]diazepine-2(8H)-acetate]: the values for the IC50 in test [1] and in test [2] (setting [3]) were 13 nM and 17 nM, respectively.
